Test results as given in patent publication US20250360124A1, “NOVEL RAS INHIBITORS” (KHR BIOTEC GMBH, priority 2022, published 2025).
Structures can show the parent of a compound that is named as a salt.

Columns and labels:
Assay type in all cases: cell-based
KRAS dependent cells = assay: MTT assay for cell viability in 96 well cell culture plate; details: 48 h treatment, KRAS dependent cells incl. G12C/Y96D mutation, FIG. 3a
Description: FIGS. 3a) and 3b): MTT assay for cell viability in 96 well cell culture plate Cells were treated with Quinacrine dihydrochloride hydrate for 48 h and cell viability was evaluated by MTT assay. DMSO-treated cells were set as 1. The results shown are mean±SEM from 3 independent experiments.
G12C/Y96D mutation is normally seen in patients, who develop resistance to G12C inhibitor. Thus, patients, who are resistant to G12C inhibitors can still be treated with Quinacrine dihydrochloride.

T24 cells = assay: Soft agar colony formation assay, MTT readout; details: Homo sapiens, T-24, growth in soft agar, colonies stained with MTT, absorbance 570 nm
Description: (§1) FIGS. 2a) and 2b): MTT assay for cell growth
(§2) Metabolic activity was quantified using Cell Proliferation Kit I (Roche, Basel, Switzerland). Cells were seeded in 96-well cell culture plates, using 5000 cells per well for NCI-H358 cells. After treatment, 10 μl of MTT solution was added and incubated for 2 h in CO2 incubator. Then 100 μl of solubilization buffer was added to each well and incubated overnight in CO2 incubator. Cell viability, assessed by the amount of metabolized MTT, was quantified by measuring absorbance at 570 nm.
(§3) MTT assay for the growth of different tumor cell lines with RAS mutations in soft agar with Quinacrine dihydrochloride.
(§4) NCI-H358, H358, H2122, ASPC-1, HCT-116, T24 and HT1080 cells were used for the soft agar colony formation assay. After the treatment with Quinacrine dihydrochloride hydrate, the colonies were stained with MTT and the value was quantified by measuring absorbance at 570 nm after solubilization. The results represent mean±SEM from 3 independent experiments.

NCI-H358 cells = assay: Soft agar colony formation assay, MTT readout; details: Homo sapiens, growth in soft agar, colonies stained with MTT, absorbance 570 nm
Description: as §1, §2, §3, §4

ASPC1 cells = assay: Soft agar colony formation assay, MTT readout; details: Homo sapiens, growth in soft agar, colonies stained with MTT, absorbance 570 nm
Description: as §1, §2, §3, §4

HT1080 cells = assay: Soft agar colony formation assay, MTT readout; details: Homo sapiens, HT-1080, growth in soft agar, colonies stained with MTT, absorbance 570 nm
Description: as §1, §2, §3, §4

NCI-H2122 cells = assay: Soft agar colony formation assay, MTT readout; details: Homo sapiens, growth in soft agar, colonies stained with MTT, absorbance 570 nm
Description: as §1, §2, §3, §4

HCT-116 cells = assay: Soft agar colony formation assay, MTT readout; details: Homo sapiens, growth in soft agar, colonies stained with MTT, absorbance 570 nm
Description: as §1, §2, §3, §4

HRAS G12V = molecular target: T1, HRAS G12V (Homo sapiens, UniProt P01112, G12V); assay: NanoBit assay for RAS activation (LgBiT-RAS / SmBiT-CRAF RBD); details: H-RAS G12V with CRAF RBD; 2 h with inhibitor, serum free DMEM; FIG. 1
T1 construct: K, N and HRAS G12V (full length) was cloned with Xho I and Bgl II to LgBit; expressed in transfected cells
Description: (§5) FIG. 1a) and 1b): NanoBit assay for RAS activation (KRAS G12V, NRAS G12V, HRAS G12V)
(§6) N-terminal LgBiT and C-terminal SmBIT construct was purchased from Promega and K, N and HRAS G12V (full length) was cloned with Xho I and Bgl II to LgBit and CRAF Ras binding domain (1-149) was cloned with EcoRI and Bgl II to SmBit. For transfections, 1 μg or 2 μg of (12 well/6 well) plasmids were transfected into cells with 0.5 mM of PEI reagent in 100 μl or 200 μl PBS. One day after transfection, cells were harvested and seeded into 96 well white plates, half area (Greiner). After an additional day the medium was changed to serum free DMEM and the cells were incubated for 2 h with inhibitors. NanoGlo assay was performed according to the manufacturer's instructions. The luminescence was measured using Tecan infinite (Tecan). DMSO-treated cells were set as 1. The results shown are mean mean±SEM from at least 3 independent experiments.

NRAS G12V = molecular target: T2, NRAS G12V (Homo sapiens, UniProt P01111, G12V); assay: as above; details: N-RAS G12V with CRAF RBD; 2 h with inhibitor, serum free DMEM; FIG. 1
T2 construct: K, N and HRAS G12V (full length) was cloned with Xho I and Bgl II to LgBit; expressed in transfected cells
Description: as §5, §6

KRAS G12V = molecular target: T3, KRAS G12V (Homo sapiens, UniProt P01116, G12V); assay: as above; details: K-RAS G12V with CRAF RBD; 2 h with inhibitor, serum free DMEM; FIG. 1
T3 construct: K, N and HRAS G12V (full length) was cloned with Xho I and Bgl II to LgBit; expressed in transfected cells
Description: as §5, §6

sNF96.2 cells = assay: MTT assay for cell viability in 96 well plate, RASOpathie model; details: 48 h treatment

T3 sequence (P01116 1-188 isoform P01116-2 G12V): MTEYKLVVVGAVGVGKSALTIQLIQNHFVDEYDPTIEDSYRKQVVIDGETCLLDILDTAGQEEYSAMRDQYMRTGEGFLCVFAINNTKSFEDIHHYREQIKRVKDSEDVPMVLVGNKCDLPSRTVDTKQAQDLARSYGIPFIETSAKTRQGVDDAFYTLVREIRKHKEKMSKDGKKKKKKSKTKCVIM
T1 sequence (P01112 whole entry G12V): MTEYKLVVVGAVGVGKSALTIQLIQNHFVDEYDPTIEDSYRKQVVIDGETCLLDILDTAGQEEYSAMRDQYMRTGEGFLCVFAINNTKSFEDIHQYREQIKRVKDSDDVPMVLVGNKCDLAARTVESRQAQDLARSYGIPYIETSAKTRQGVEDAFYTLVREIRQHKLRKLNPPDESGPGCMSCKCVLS
T2 sequence (P01111 whole entry G12V): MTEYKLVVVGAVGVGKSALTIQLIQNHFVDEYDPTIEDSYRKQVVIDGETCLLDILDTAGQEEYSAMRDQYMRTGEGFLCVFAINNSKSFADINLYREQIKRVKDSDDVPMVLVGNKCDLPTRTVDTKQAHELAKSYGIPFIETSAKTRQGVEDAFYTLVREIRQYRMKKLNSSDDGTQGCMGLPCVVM

Q: Which “inhibition of cell viability” value (KRAS dependent cells) does the source give for `CCN(CC)CCCC(C)Nc1c2ccc(Cl)cc2nc2ccc(OC)cc12` (centres unmarked) [Quinacrine dihydrochloride hydrate, 4-N-(6-chloro-2-methoxyacridin-9-yl)-1-N,1-N-diethylpentane-1,4-diamine;hydrate;dihydrochloride] here?
A: Its value is “inhibits KRAS dependent cells irrespective of the presence of mutation”.

Q: What about the IC50 (T24 cells) of the same compound?
A: Its IC50 is 4 µM.

Q: And the IC50 (NCI-H358 cells)?
A: Its IC50 is 5.1 µM.

Q: And the IC50 (ASPC1 cells)?
A: Its IC50 is 4.28 µM.

Q: What about the IC50 (HT1080 cells) of the same compound?
A: The IC50 was 149 µM.

Q: What about the IC50 (NCI-H2122 cells) of the same compound?
A: Its IC50 is 2.48 µM.

Q: What about the IC50 (HCT-116 cells) of the same compound?
A: The IC50 was 5.5 µM.

Q: What about the “inhibition of RAS activation (NanoBit luminescence)” value (“inhibition of RAS activation” for short) (HRAS G12V) of the same compound?
A: The value was “inhibits”.

Q: And the “inhibition of RAS activation” value (NRAS G12V)?
A: Its value is “inhibits”.

Q: What about the “inhibition of RAS activation” value (KRAS G12V) of the same compound?
A: Its value is “inhibits”.

Q: What about the IC50 (sNF96.2 cells) of the same compound?
A: Its IC50 is 4.51 µM.
